Experimental findings from ChEMBL document CHEMBL1201862, “PubChem BioAssay data set” (2004) are described below.

Assay [1] in a line: growth suppression of PTEN-null colon cells, dose response, cell-based, HCT116 PTEN knockout (AID 1047).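 Also: HCT116 colon tumor cells with PTEN knocked out; cells exposed to compound for 60 hours before readout; potency for loss of cell viability measured by luminescence.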 The assay is classed as functional.
In assay [2] the target is T1, Ubiquitin-conjugating enzyme E2 N (Homo sapiens, UniProt P61088).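 Also: Dose-response confirmation in a TR-FRET assay detecting UBC13-driven polyubiquitin chain formation, inhibition measured.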
T1 sequence (P61088 whole entry): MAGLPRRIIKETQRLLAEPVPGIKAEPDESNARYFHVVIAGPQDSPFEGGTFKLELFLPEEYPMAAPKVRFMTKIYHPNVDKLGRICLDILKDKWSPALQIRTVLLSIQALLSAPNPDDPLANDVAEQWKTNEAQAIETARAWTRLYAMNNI
It is filed as functional.

A short description of assay [3]: growth suppression of beta-catenin-knockout colon cells, dose response, cell-based, HCT116, human colon tumor (AID 1045).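 Also: HCT116 colon tumor cells with beta catenin knocked out; cells exposed to compound for 60 hours.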 It is filed as functional.
The target of assay [4] is T2, Short transient receptor potential channel 4 (Mus musculus, UniProt Q9QUQ5).
T2 sequence (Q9QUQ5 whole entry): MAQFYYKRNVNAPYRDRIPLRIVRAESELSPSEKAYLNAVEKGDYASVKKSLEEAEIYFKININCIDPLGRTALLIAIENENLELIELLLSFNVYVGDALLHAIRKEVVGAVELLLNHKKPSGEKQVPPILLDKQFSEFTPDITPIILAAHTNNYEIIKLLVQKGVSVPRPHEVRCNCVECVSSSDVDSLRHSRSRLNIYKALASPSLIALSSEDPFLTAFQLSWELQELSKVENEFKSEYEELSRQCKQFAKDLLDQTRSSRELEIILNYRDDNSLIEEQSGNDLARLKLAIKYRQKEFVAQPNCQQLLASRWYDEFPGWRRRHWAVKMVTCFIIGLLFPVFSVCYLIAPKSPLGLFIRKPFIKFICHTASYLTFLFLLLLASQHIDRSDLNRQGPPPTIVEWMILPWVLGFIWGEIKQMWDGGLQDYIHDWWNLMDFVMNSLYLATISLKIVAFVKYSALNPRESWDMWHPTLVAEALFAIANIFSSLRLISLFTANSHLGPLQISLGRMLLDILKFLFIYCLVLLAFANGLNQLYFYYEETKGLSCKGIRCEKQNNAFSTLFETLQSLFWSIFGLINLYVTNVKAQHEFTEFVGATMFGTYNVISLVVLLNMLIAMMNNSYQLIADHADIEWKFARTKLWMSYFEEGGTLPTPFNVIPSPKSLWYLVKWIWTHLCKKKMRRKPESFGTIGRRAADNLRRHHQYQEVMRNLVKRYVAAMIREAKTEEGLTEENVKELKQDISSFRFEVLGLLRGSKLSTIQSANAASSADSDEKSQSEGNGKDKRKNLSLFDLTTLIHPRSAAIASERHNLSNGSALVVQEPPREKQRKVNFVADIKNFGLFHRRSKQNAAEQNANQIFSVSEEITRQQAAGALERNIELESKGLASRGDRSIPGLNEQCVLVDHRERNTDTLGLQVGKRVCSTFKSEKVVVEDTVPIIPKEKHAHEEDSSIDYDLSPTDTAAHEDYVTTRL
The assay is described as follows: mouse TRPC4 channel activators, dose response, cell-based, HEK293 TRPC4/mu-opioid, Fluo-4 calcium (AID 434937). It is filed as functional.

A short description of assay [5]: Luminescence Cell-Based Dose Response HTS to Identify Activators of Luciferase Translation or Activity in H4 […] Cells. [Related pubchem assays: 1829 (Project Summary), 1814 (Primary HTS)]. It is filed as functional.
In another assay the target is Genome polyprotein (dengue virus type 2, UniProt P29990). The assay is described as follows: Dengue-2 NS5 methyltransferase inhibitors, primary screen, biochemical, confirmation dose response (AID 588689). The assay is classed as functional.
Assay [6] is described as follows: Luminescence Cell-Based Dose Confirmation HTS to Identify Activators of 5'UTR Stem-Loop Driven Alpha-Synuclein mRNA Translation in H4 Neuroglioblastoma Cells. [Related pubchem assays: 1829 (Project Summary), 1814 (Primary HTS)]. The assay is classed as functional.
For the next assay, the system named is H4. The assay can be described thus: Luminescence Cell-Based Dose Response HTS to Identify Activators of 5'UTR Stem-Loop Driven Prion Protein mRNA Translation in H4 Neuroglioblastoma Cells. [Related pubchem assays: 1829 (Project Summary), 1814 (Primary HTS)]. The assay is classed as functional. The conditions noted are these: Homo sapiens.
Assay [7] concerns the target T3, RNA-binding protein pos-1 (Caenorhabditis elegans, UniProt G5EF15).
T3 sequence (G5EF15 whole entry): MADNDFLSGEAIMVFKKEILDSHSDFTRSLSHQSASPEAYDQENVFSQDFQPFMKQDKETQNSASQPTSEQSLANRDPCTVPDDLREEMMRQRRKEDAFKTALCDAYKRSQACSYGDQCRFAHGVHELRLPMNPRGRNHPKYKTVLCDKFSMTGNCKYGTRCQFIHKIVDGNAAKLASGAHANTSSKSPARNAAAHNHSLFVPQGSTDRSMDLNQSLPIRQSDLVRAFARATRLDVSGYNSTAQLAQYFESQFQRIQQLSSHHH
The assay is described as follows: inhibitors of POS-1/mex-3 RNA binding, dose response, biochemical, fluorescence polarization (AID 1964).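 Also: purified POS-1 fused to maltose binding protein made in E. coli; potency of compounds blocking POS-1 binding to fluorescent RNA.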 For orientation: Polarisation of emitted light reports the rotation of a fluorescent probe.

Another assay relates to Vero. The assay is described as follows: Vero cell cytotoxicity, cytotoxicity control for flavivirus capping enzyme inhibitors (AID 588742). It is filed as functional. The following applies: Chlorocebus sabaeus.
Assay [8] addresses T4, Zinc finger protein mex-5 (Caenorhabditis elegans, UniProt Q9XUB2).
T4 sequence (Q9XUB2 whole entry): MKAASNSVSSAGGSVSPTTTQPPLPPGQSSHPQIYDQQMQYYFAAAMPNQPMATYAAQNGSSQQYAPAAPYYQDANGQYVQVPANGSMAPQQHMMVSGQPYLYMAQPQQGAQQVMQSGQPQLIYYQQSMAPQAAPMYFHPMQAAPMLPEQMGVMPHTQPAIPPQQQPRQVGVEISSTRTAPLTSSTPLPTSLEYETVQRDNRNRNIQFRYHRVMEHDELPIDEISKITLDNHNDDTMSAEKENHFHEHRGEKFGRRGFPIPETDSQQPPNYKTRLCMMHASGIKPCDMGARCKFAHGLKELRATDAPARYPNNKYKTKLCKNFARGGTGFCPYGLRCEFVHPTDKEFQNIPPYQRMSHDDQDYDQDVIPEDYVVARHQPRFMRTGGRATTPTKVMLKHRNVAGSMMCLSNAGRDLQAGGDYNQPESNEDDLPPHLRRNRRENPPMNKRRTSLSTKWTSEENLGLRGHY
The assay is described as follows: MEX-5/TCR-2 RNA interaction inhibitors, dose response, biochemical, C. elegans, fluorescence polarization (AID 1960).

Assay [9] concerns the target T5, Corticotropin-releasing factor receptor 2/Corticotropin-releasing factor-binding protein (Homo sapiens, UniProt P24387+Q13324).
T5 sequence (Q13324 whole entry): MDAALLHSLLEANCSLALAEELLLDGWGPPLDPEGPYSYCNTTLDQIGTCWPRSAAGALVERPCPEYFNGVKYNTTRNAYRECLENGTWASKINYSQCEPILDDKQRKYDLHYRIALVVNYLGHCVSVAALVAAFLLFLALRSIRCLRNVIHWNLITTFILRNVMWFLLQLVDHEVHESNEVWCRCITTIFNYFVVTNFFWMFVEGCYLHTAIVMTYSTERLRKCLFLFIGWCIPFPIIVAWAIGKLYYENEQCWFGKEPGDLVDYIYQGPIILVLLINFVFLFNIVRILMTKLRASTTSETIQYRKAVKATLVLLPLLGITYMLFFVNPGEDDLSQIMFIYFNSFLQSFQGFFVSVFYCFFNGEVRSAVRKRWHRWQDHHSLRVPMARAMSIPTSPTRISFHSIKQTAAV
T5 sequence (P24387 whole entry): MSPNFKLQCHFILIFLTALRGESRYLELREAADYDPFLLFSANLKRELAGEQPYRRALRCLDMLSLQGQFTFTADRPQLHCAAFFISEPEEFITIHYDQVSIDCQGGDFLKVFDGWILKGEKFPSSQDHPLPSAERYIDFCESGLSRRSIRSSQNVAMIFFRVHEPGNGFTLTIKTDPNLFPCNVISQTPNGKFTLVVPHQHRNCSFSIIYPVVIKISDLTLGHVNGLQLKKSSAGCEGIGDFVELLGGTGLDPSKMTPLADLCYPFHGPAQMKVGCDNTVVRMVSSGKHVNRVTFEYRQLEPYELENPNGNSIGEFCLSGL
The assay can be described thus: activators of CRF receptor 2 with binding protein – uHTS hits, confirmation (AID 602473). It is filed as functional. The conditions noted are these: read-out: EC50_Mean.

Assay [10] addresses T5, Corticotropin-releasing factor receptor 2/Corticotropin-releasing factor-binding protein. The assay is described as follows: Dose Response confirmation of uHTS hits for small molecule antagonists of the CRF-binding protein and CRF-R2 receptor complex. It is filed as functional. The conditions noted are these: read-out: IC50_Mean.
Assay [11] concerns the target Glyceraldehyde-3-phosphate dehydrogenase (Homo sapiens, UniProt P04406).
A short description of assay [12]: Luminescence Cell-Based Dose Retest to Confirm Inhibitors of Cancer Stem Cells. [Related pubchem assays (depositor defined):AID2717, AID2721]. The assay is classed as functional. The following applies: Homo sapiens.
Assay [13] can be described thus: cytotoxicity toward NIH3T3 fibroblasts, dose response, counter-screen, cell-based, ATP luminescence, mouse fibroblasts (AID 2010).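 Also: cells exposed to compound for about 90 hours before reading.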 The assay is classed as functional. For orientation: Counterscreens check selectivity or assay interference.
Assay [14] in a line: inhibitors of intracellular T. cruzi replication, confirmation, NIH3T3 host cells, beta-gal luminescence (AID 2044).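 Also: intracellular parasites grown in NIH/3T3 mouse fibroblasts as host cells; luminescent beta-galactosidase reporter signal from transgenic T. cruzi replicating inside host cells; inhibitors lower the luminescence signal.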 It is filed as functional, cell-based.

What is called CC50 is the concentration giving 50% cytotoxicity. Broadly, the AC50 is the concentration giving half of the maximal activity seen.

Active and inactive are the calls of the source. Bounds are passed on as bounds.
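For AC50 in this document: cells exposed to compound for roughly 70 hours or longer before luminescence read.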

Sequence of Genome polyprotein (P29990 2492-3391 limits assumed): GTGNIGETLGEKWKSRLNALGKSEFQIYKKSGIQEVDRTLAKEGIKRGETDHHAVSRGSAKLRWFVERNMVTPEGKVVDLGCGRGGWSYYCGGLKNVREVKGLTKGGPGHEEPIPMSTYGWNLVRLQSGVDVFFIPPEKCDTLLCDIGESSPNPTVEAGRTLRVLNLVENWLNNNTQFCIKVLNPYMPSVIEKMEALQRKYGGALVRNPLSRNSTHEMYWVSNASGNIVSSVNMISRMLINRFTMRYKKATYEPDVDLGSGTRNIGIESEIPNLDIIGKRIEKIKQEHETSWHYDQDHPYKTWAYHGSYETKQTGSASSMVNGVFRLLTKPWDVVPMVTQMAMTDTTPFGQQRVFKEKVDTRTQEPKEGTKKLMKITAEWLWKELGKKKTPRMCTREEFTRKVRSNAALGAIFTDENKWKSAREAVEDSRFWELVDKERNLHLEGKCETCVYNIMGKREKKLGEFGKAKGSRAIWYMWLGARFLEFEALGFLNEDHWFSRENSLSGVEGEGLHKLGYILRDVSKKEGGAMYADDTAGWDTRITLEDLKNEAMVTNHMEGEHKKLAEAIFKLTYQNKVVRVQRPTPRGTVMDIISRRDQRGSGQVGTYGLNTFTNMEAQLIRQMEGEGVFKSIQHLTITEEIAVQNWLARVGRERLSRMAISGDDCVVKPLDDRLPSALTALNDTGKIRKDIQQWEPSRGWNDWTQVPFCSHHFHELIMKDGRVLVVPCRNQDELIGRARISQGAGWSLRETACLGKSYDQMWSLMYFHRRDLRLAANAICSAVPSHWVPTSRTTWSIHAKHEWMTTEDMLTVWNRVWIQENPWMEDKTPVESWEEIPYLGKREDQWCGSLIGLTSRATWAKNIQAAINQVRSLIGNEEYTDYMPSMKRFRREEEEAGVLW
Sequence of Glyceraldehyde-3-phosphate dehydrogenase (P04406 whole entry): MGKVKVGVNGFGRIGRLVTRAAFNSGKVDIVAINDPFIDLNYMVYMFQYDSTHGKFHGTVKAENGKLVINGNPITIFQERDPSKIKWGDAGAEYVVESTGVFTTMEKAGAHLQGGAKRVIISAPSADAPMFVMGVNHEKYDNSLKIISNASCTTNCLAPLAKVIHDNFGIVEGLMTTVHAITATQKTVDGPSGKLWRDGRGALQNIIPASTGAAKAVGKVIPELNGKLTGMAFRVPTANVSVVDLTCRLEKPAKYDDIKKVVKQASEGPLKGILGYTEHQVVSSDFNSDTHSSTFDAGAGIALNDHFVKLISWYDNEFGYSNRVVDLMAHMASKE

Take `CC1(C)CC2=NC3=C(C(=O)c4ccccc43)C(c3ccc(Cl)cc3)C2=C(O)C1` (stereo not given): the EC50 in [1] was 13.1 µM (active); in [3], 13.8 µM (active). Besides, the IC50 in assay [2] is > 20 µM (inactive).

As to `CN1CCN(Cc2nc3c(c(=O)[nH]c(=O)n3C)n2Cc2c(F)cccc2Cl)CC1`, the EC50 in assay [4] was 1.68 µM (active).

As for `CCC(C)/C=C(C)/C=C/C1=CC2=C(Cl)C(=O)C(C)(OC(C)=O)C(=O)C2=CO1` (stereo not given), the EC50 in assay [5] is reported as > 120 µM (not active); in assay [6], > 120 µM (not active); in the assay with H4 it was > 120 µM (not active); in assay [7] it was > 300 µM (not active); in assay [8], > 300 µM (not active). Also, the IC50 at Genome polyprotein was 38 µM (active). Further, the CC50 in the assay with Vero was > 40 µM (active).

Turning to `O=C(COc1cc(Cl)c(Cl)cc1Cl)NCCc1ccccn1`, the EC50 in assay [4] is 10.6 µM (active).

For the molecule `c1ccc(CN2CCC(NC3=NN=C(c4ccc5c(c4)OCCO5)CS3)CC2)cc1`, the EC50 in [5] is > 120 µM (not active); in assay [6], 12.5 µM (active); in the assay with H4, 48.5 µM (active).

For the molecule `Cc1ccccc1Cn1c(CN2CCc3ccccc3C2)nc2c1c(=O)n(C)c(=O)n2C`, the EC50 in assay [4] was 5.96 µM (active).

In the case of `CCCCC(=O)NC(=S)NNC(=O)c1ccc(Cl)cc1Cl`, the results for the EC50 in [9] and in assay [4] were 6.56 µM (active) and 5.31 µM (active), respectively.

On to `NC(=O)C1CCCN(CC(O)COCc2ccc(Cl)cc2)C1` (stereo not given), for which the EC50 in [4] is 0.211 µM (active).

As for `CC1CCC(NC(=O)C2CCN(c3c4c(nc5ncnn35)CCC4)CC2)CC1` (stereo not given), the EC50 in [5] is 64.8 µM (active); in [6] it was 48.6 µM (active); with H4, 22.3 µM (active).

For the molecule `O=C(Nc1cccc(S(=O)(=O)N2CCCCC2)c1)c1ccc(S(=O)(=O)C(F)F)cc1`, the EC50 in assay [9] was > 53 µM (inactive). Also, the IC50 in [10] was > 47.1 µM (inactive).

Take `NS(=O)(=O)c1ccc(NC(=O)COc2ccccc2)cc1`: in assay [11], the IC50 is > 100 µM (not active).

Take `O=C1C(=Cc2ccncc2)CCCc2ccccc21`: in assay [9], the EC50 is > 53 µM (inactive). Also, the IC50 in assay [10] is > 47.1 µM (inactive).

`COc1ccc(-c2sc3ccccc3c2C#Cc2cncn2C)cc1`: the AC50 in assay [12] was 2.69 µM (active). In addition, in assay [2], the IC50 is > 20 µM (inactive).

As to `Cc1cc(C)c(CN2CCN(Cc3ccc(C)o3)C(CCO)C2)c(-n2cccn2)c1` (stereo not given), the EC50 in [4] was 3.35 µM (active).

With `COc1cc(C(=O)Nc2cccc(S(=O)(=O)N3CCCC3)c2)cc(OC)c1C`, the IC50 in [2] is > 20 µM (inactive).

For the molecule `Cc1c(Cl)cccc1N1C(=O)c2ccccc2C1=O`, the EC50 in assay [9] is > 53 µM (inactive). Moreover, the IC50 in assay [10] was > 47.1 µM (inactive).

As to `CCCC(C(=O)NC(C)(C)C)N(Cc1ccccc1Cl)C(=O)c1snc(C(N)=O)c1N` (stereo not given), the IC50 in [2] was > 20 µM (inactive).

With `COC(=O)c1cc(OC)c(OC)cc1NC(=O)C(C)Sc1ccc(C)cc1` (stereo not given), the EC50 in [9] is > 53 µM (inactive). Further, in assay [10], the IC50 is > 47.1 µM (inactive).

With `CN(C)C(CNC(=O)c1ccc2ccccc2n1)c1ccccc1` (stereo not given), the EC50 in assay [4] was 0.267 µM (active).

On to `COc1cccc(NC(=O)COC(=O)c2c(F)cccc2Cl)c1`, for which the values for the EC50 (in assay [5]; in assay [6]; in the assay on H4) were 16.1 µM (active), 66.8 µM (active) and 20.2 µM (active), respectively.

As to `COc1cc(C(CCN2CCCC2)c2c(OC)cc(OC)c3c(-c4ccccc4)cc(=O)oc23)cc(OC)c1OC` (stereo not given), the EC50 is 49.2 µM (active) in [13], > 300 µM (not active) in assay [7], 1.7 µM (active) in [14] and > 300 µM (not active) in assay [8]. Further, the IC50 in assay [2] is > 20 µM (inactive).
